The source made the active and inactive calls. No cut-off for these calls is given here.
Tests used:
MDA-MB-468 = test: Antiproliferative activity against BRCA-proficient human MDA-MB-468 cells assessed as inhibition of cell growth measured after 7 days by MTT assay; assay type: functional, cell-based; settings: MDA-MB-468, 168 h
HCT-116 = test: Antiproliferative activity against BRCA2-mutated human HCT-116 cells assessed as inhibition of cell growth measured after 7 days by MTT assay; assay type: functional, cell-based; settings: HCT-116, 168 h
THP-1 = test: Antiproliferative activity against human THP-1 cells expressing BRD4 assessed as inhibition of cell growth measured after 3 days by MTT assay; assay type: functional, cell-based; settings: THP-1, 72 h
SW1990 [1] = test: Antiproliferative activity against human SW1990 cells assessed as inhibition of cell growth after 3 days by MTT assay; assay type: functional, cell-based; settings: SW1990, 72 h
SW1990 [2] = test: Antiproliferative activity against human SW1990 cells assessed as inhibition of cell growth measured after 5 days by MTT assay; assay type: functional, cell-based; settings: SW1990, 120 h
SW1990 [3] = test: Effect on CDC25B gene expression in human SW1990 cells at 4 uM by Q-PCR analysis; assay type: functional, cell-based
SW1990 [4] = test: Antiproliferative activity against human SW1990 cells assessed as inhibition of cell growth measured after 7 days by MTT assay; assay type: functional, cell-based; settings: SW1990, 168 h
CAPAN-1 [5] = test: Antiproliferative activity against human CAPAN-1 cells assessed as inhibition of cell growth measured after 3 days by MTT assay; assay type: functional, cell-based; settings: CAPAN-1, 72 h
CAPAN-1 [6] = test: Antiproliferative activity against human CAPAN-1 cells assessed as inhibition of cell growth measured after 5 days by MTT assay; assay type: functional, cell-based; settings: CAPAN-1, 120 h
CAPAN-1 [7] = test: Antiproliferative activity against human CAPAN-1 cells assessed as inhibition of cell growth measured after 7 days by MTT assay; assay type: functional, cell-based; settings: CAPAN-1, 168 h
CFPAC-1 [8] = test: Antiproliferative activity against human CFPAC-1 cells assessed as inhibition of cell growth measured after 3 days by MTT assay; assay type: functional, cell-based; settings: CFPAC-1, 72 h
CFPAC-1 [9] = test: Antiproliferative activity against human CFPAC-1 cells assessed as inhibition of cell growth measured after 4 days by MTT assay; assay type: functional, cell-based; settings: CFPAC-1, 96 h
CFPAC-1 [10] = test: Antiproliferative activity against human CFPAC-1 cells assessed as inhibition of cell growth measured after 7 days by MTT assay; assay type: functional, cell-based; settings: CFPAC-1, 168 h
[11] = Toxicity in nude mouse xenografted with human SW1990 cells assessed as liver damage at 15 mg/kg, ip administered for 28 days by H and E staining based fluorescence microscopic analysis; assay type: organism-based; settings: in vivo, 672 h, time 28 day
[12] = Toxicity in nude mouse xenografted with human SW1990 cells assessed as lung damage at 15 mg/kg, ip administered for 28 days by H and E staining based fluorescence microscopic analysis; assay type: organism-based; settings: in vivo, 672 h, time 28 day
SW1990 [13] = test: Induction of cell cycle arrest in human SW1990 cells assessed as accumulation of cells at G2/M phase at 1 uM incubated for 4 days in presence of 3 uM Olaparib by propidium iodide staining based flow cytometry (reference value: 5.89%); assay type: functional; settings: time 4 day
SW1990 [14] = test: Effect on FOXO1 gene expression in human SW1990 cells at 4 uM by Q-PCR analysis; assay type: functional, cell-based
SW1990 [15] = test: Effect on CDK1 gene expression in human SW1990 cells at 1 uM in presence of Olaparib by Q-PCR analysis; assay type: functional, cell-based
SW1990 [16] = test: Effect on BRCA2 gene expression in human SW1990 cells at 1 uM in presence of Olaparib by Q-PCR analysis; assay type: functional, cell-based
[17] = Toxicity in nude mouse xenografted with human SW1990 cells assessed as kidney damage at 45 mg/kg, ip administered for 28 days by H and E staining based fluorescence microscopic analysis; assay type: organism-based; settings: in vivo, 672 h, time 28 day
CFPAC-1 [18] = test: Antiproliferative activity against human CFPAC-1 cells assessed as inhibition of cell growth measured after 5 days by MTT assay; assay type: functional, cell-based; settings: CFPAC-1, 120 h
Mus musculus [19] = test: Upregulation of CDK1 expression in nude mouse xenografted with human SW1990 cells at 45 mg/kg, ip measured after 4 days by Q-PCR analysis; assay type: functional, organism-based; settings: time 4.0 day
SW1990 [20] = test: Induction of DNA damage in human SW1990 cells assessed as increase in gammaH2AX expression at 6 uM incubated for 4 days by DAPI staining based laser confocal microscopic analysis; assay type: functional, cell-based; settings: time 4.0 day
SW1990 [21] = test: Effect on HEXIM1 gene expression in human SW1990 cells at 6 uM by Q-PCR analysis; assay type: functional, cell-based
SW1990 [22] = test: Effect on BRCA1 gene expression in human SW1990 cells at 6 uM by Q-PCR analysis; assay type: functional, cell-based
SW1990 [23] = test: Effect on Rad51 gene expression in human SW1990 cells at 6 uM by Q-PCR analysis; assay type: functional, cell-based
SW1990 [24] = test: Effect on ALDH1A1 gene expression in human SW1990 cells at 6 uM by Q-PCR analysis; assay type: functional, cell-based
SW1990 [25] = test: Downregulation of Ki67 expression in human SW1990 cells at 45 mg/kg, ip measured after 28 days by immuno histochemical staining based fluorescence microscopic analysis; assay type: functional, organism-based; settings: time 28.0 day
SW1990 [26] = test: Induction of BRCA1 accumulation in nucleus of human SW1990 cells at 6 uM measured after 4 days by Western blot analysis; assay type: functional, cell-based; settings: time 4.0 day
MDA-MB-231 = test: Antiproliferative activity against BRCA-proficient human MDA-MB-231 cells assessed as inhibition of cell growth measured after 7 days by MTT assay; assay type: functional, cell-based; settings: MDA-MB-231, 168 h
SW1990 [27] = test: Antitumor activity against human SW1990 cells xenografted in nude mouse assessed as reduction in tumor weight at 30 mg/kg, ip administered for 28 days and measured every 3 days by vernier caliper method; assay type: functional, organism-based; settings: time 28.0 day
Mus musculus [28] = test: Inhibition of PARP1 expression in nude mouse xenografted with human […] cells at 30 mg/kg, ip administered for 28 days by DAPI staining based laser confocal microscopic analysis; assay type: functional, organism-based; settings: time 28.0 day
SW1990 [29] = test: Induction of cell cycle arrest in human SW1990 cells assessed as accumulation of cells at S phase at 1 uM incubated for 4 days by propidium iodide staining based flow cytometry (reference value: 29.32%); assay type: functional; settings: time 4 day
SW1990 [30] = test: Induction of cell cycle arrest in human SW1990 cells assessed as accumulation of cells at G2/M phase at 1 uM incubated for 4 days by propidium iodide staining based flow cytometry (reference value: 5.89%); assay type: functional; settings: time 4 day
Mus musculus [31] = test: Inhibition of CCND1 expression in nude mouse xenografted with human SW1990 cells at 30 mg/kg, ip measured after 4 days by Western blot analysis; assay type: functional, organism-based; settings: time 4.0 day
Mus musculus [32] = test: Inhibition of homologous recombinant repair in nude mouse xenografted with human SW1990 cells assessed as reversal of olaparib-induced TOPBP1 expression at 30 mg/kg, ip measured after 4 days by Western blot analysis; assay type: functional, organism-based; settings: time 4.0 day
SW1990 [33] = test: Effect on E2F2 gene expression in human SW1990 cells at 1 to 2 uM by Q-PCR analysis; assay type: functional, cell-based; settings: dose 1-2 µM
SW1990 [34] = test: Effect on FOXO1 gene expression in human SW1990 cells at 1 to 2 uM by Q-PCR analysis; assay type: functional, cell-based; settings: dose 1-2 µM
Mus musculus [35] = test: Induction of DNA damage in nude mouse xenografted with human SW1990 cells assessed as increase in gammaH2AX expression at 30 mg/kg, ip incubated for 4 days by DAPI staining based laser confocal microscopic analysis; assay type: functional, organism-based; settings: time 4.0 day

Compound | IC50 (MDA-MB-468) [nM] | IC50 (HCT-116) [nM] | IC50 (THP-1) [nM] | IC50 (SW1990 [1]) [µM] | IC50 (SW1990 [2]) [nM] | IC50 (SW1990 [4]) [nM] | IC50 (CAPAN-1 [5]) [µM] | IC50 (CAPAN-1 [6]; read-out: IC50) [nM] | IC50 (CAPAN-1 [7]) [nM] | IC50 (CFPAC-1 [8]) [µM] | IC50 (CFPAC-1 [9]) [nM] | IC50 (CFPAC-1 [10]) [nM] | IC50 (CFPAC-1 [18]) [µM] | further results
Cc1sc2c(c1C)C(c1ccc(Cl)cc1)=N[C@@H](CC(=O)OC(C)(C)C)c1nnc(C)n1-2 | 540 | 2030 | 330 | 31.6 | 1110 | 630 | 24.1 | 580 | 450 | 13.9 | 1860 | 350 | – | Activity (SW1990 [3]): Active; Activity [11]: Non-Toxic; Activity [12]: Non-Toxic; Activity (SW1990 [13]): 9.14%; Activity (SW1990 [14]): Active; Activity (SW1990 [15]): Active; Activity (SW1990 [16]): Active
O=C(c1cc(Cc2n[nH]c(=O)c3ccccc23)ccc1F)N1CCN(C(=O)C2CC2)CC1 [OLAPARIB] | 1830 | 7320 | 32300 | 19.4 | 4930 | 3630 | 25.2 | – | 2610 | 28.7 | – | 7440 | 9.87 | Activity [17]: Non-Toxic; IC50 (CAPAN-1 [6]): 5340 nM; Activity (Mus musculus [19]): Active; Activity (SW1990 [20]): Active; Activity (SW1990 [21]): Active; Activity (SW1990 [22]): Active; Activity (SW1990 [23]): Active; Activity (SW1990 [24]): Active; Activity (SW1990 [25]): Active; Activity (SW1990 [26]): Active
Cc1noc(C)c1-c1ccc2c(c1)C(c1ccccc1)N(Cc1nc3c(C(N)=O)cccc3[nH]1)C(=O)N2C (stereo not drawn) | 90 | 1440 | 430 | 11.7 | 980 | 560 | 7.21 | 410 | 170 | 2.43 | 1310 | 210 | 0.98 | IC50 (MDA-MB-231): 140 nM; Activity (SW1990 [27]): Active; inhibition (Mus musculus [28]): Active; Activity (SW1990 [29]): 14.98%; Activity (SW1990 [30]): 10.13%; inhibition (Mus musculus [31]): Active; inhibition (Mus musculus [32]): Active; Activity (SW1990 [33]): Active; Activity (SW1990 [34]): Active; Activity (Mus musculus [35]): Active

Source: ChEMBL document CHEMBL5131471, “Design, synthesis and mechanism studies of novel dual PARP1/BRD4 inhibitors against pancreatic cancer” (Eur J Med Chem, 2022)
